{"source": "paper PMC8070514", "about": "“Antibacterial and Antibiofilm Activities of Novel Antimicrobial Peptides against Multidrug-Resistant Enterotoxigenic Escherichia Coli” (International Journal of Molecular Sciences, 2021)", "key": {"[1]": {"tested_on": "MDR ETEC strain (clinical isolate)", "assay": "Resistance of the MDR ETEC strain to conventional antibiotics", "format": "cell-based, Escherichia coli", "settings": "method not given", "method": "(§1) The MDR ETEC strain used in this study was a clinical isolate kindly provided by our co-author, Dr. Hui-Wen Chang from Department of Veterinary Medicine and Graduate Institute of Molecular and Comparative Pathobiology, School of Veterinary Medicine, National Taiwan University. […] Glycerol stocks (20%, v/v) were maintained at −86 °C for long-term storage."}, "[2]": {"assay": "Hemolytic activity, minimal hemolysis concentration (MHC)", "format": "cell-based", "settings": "method not described"}, "[3]": {"tested_on": "MDR ETEC (multidrug-resistant enterotoxigenic Escherichia coli)", "settings": "MDR ETEC clinical isolate; 96-well microtiter plates, 10^4 CFU/mL inoculum, 48 h at 37 °C, absorbance 600 nm; lowest concentration that completely inhibits visible growth", "method": "as §1\nCultures were examined for growth after 48 h incubation at 37 °C, and the absorbance at 600 nm was measured."}, "[4]": {"tested_on": "intestinal porcine epithelial cell line-J2 (IPEC-J2)", "assay": "Cell viability (MTT) assay, IPEC-J2", "format": "cell-based", "settings": "IPEC-J2, 24 h exposure", "method": "(§2) The IPEC-1 and IPEC-J2 cell lines were kindly provided by Dr. Je-Ruei Liu from Institute of Biotechnology and Department of Animal Science and Technology, National Taiwan University. The culture conditions and protocols were according to Koh et al. with slight modifications. Both IPEC-1 and IPEC-J2 cells were seeded on 9-cm cell culture dishes and were cultured and maintained in Dulbecco’s modified Eagle medium (DMEM)/nutrient mixture F-12 (GeneDireX, Taipei, Taiwan) supplemented with 10% fetal bovine serum (FBS; Hyclone, Cytiva, Washington DC, USA). The cultures were maintained in a humidified incubator in an atmosphere of 5% CO2 at 37 °C. After 4 to 5 days of culturing, both cell lines became confluent. Cell monolayers were washed with 3–5 mL Dulbecco’s phosphate buffered saline (DPBS, Amresco, Solon, OH, USA) and trypsinized with 1× trypsin-EDTA. The detached cells were pelleted at 200× g for 5 min, re-suspended in antibiotic-free medium, and used for subsequent adherence assays. […]\n(§3) The viability of both IPEC-1 and IPEC-J2 cells after treated with AMP Q4-15a-1 was evaluated using 3-(4,5-dimethylthiazol-2-yl)-2,5-diphenyltetrazolium bromide (MTT, Amresco, Solon, OH, USA) assays performed in triplicate in three independent experiments. […] Absorbance at 570 nm of the maximum was detected by a multimode microplate reader SpectraMax M2 (Molecular Devices, San Jose, CA, USA). […]"}, "[5]": {"tested_on": "intestinal porcine epithelial cell line-1 (IPEC-1)", "assay": "Cell viability (MTT) assay, IPEC-1", "format": "cell-based", "settings": "IPEC-1, 24 h exposure", "method": "as §2, §3"}, "[6]": {"tested_on": "Acinetobacter baumannii biofilms", "settings": "32 and 64 μg/mL; cited from earlier work", "description": "Biofilm is a microbial community that adheres to the surface of various substances and encapsulates themselves in an autologous extracellular matrix. It is a critical issue to manage biofilms in clinical treatment. The matrix of the biofilm plays an important role in the mechanism of resistance to antibiotics, which constitutes a barrier to delay or prevent the interaction of antibiotics with microbial cells, depending on the extracellular polymeric substances and the charge of antimicrobial agents. The latter can be isolated or repelled, thereby reducing its effect on biofilms [[36],[3 ..."}}, "note": "Ends that are not written are not given here."}
{"molecule": "CCn1cc(C(=O)O)c(=O)c2cc(F)c(N3CCNCC3)cc21", "note": "[norfloxacin]", "values": [{"measurement": "Susceptibility of the MDR ETEC strain", "setting": "[1]", "result": "resistant"}]}
{"molecule": "NC[C@H]1O[C@H](O[C@H]2[C@H](O)[C@@H](O[C@H]3O[C@H](CO)[C@@H](O)[C@H](N)[C@H]3O)[C@H](N)C[C@@H]2N)[C@H](O)[C@@H](O)[C@@H]1O", "note": "[kanamycin]", "values": [{"measurement": "Susceptibility of the MDR ETEC strain", "setting": "[1]", "result": "resistant"}]}
{"molecule": "CCN1CCN(c2cc3c(cc2F)c(=O)c(C(=O)O)cn3C2CC2)CC1", "note": "[enrofloxacin]", "values": [{"measurement": "Susceptibility of the MDR ETEC strain", "setting": "[1]", "result": "resistant"}]}
{"molecule": "CO/N=C(\\C(=O)N[C@@H]1C(=O)N2C(C(=O)O)=C(COC(N)=O)CS[C@H]12)c1ccco1", "note": "[cefuroxime]", "values": [{"measurement": "Susceptibility of the MDR ETEC strain", "setting": "[1]", "result": "resistant"}]}
{"molecule": "NC[C@H]1O[C@H](O[C@H]2[C@H](O)[C@@H](O[C@H]3O[C@H](CO)[C@@H](O)[C@H](N)[C@H]3O)[C@H](N)C[C@@H]2N)[C@H](N)C[C@@H]1O", "note": "[tobramycin]", "values": [{"measurement": "Susceptibility of the MDR ETEC strain", "setting": "[1]", "result": "resistant"}]}
{"molecule": "CC1COc2c(N3CCN(C)CC3)c(F)cc3c(=O)c(C(=O)O)cn1c23", "note": "(stereo not drawn) [ofloxacin]", "values": [{"measurement": "Susceptibility of the MDR ETEC strain", "setting": "[1]", "result": "resistant"}]}
{"molecule": "KKFATIAKKFINWLW [Peptide Q4-15-2]", "values": [{"measurement": "MHC (minimal hemolysis concentration)", "setting": "[2]", "result": 32, "unit": "µg/mL"}, {"measurement": "MIC", "setting": "[3]", "result": 4, "unit": "µg/mL"}]}
{"molecule": "O=C1CN(/N=C/c2ccc([N+](=O)[O-])o2)C(=O)N1", "note": "[nitrofurantoin]", "values": [{"measurement": "Susceptibility of the MDR ETEC strain", "setting": "[1]", "result": "moderately susceptible"}]}
{"molecule": "KKFATIAKKFINWLW-NH2 [Peptide Q4-15a-2]", "values": [{"measurement": "MHC (minimal hemolysis concentration)", "setting": "[2]", "result": 16, "unit": "µg/mL"}, {"measurement": "MIC", "setting": "[3]", "result": 2, "unit": "µg/mL"}]}
{"molecule": "GANAAKKFATIAKKFINYLW [GW-Q4]", "values": [{"measurement": "MHC (minimal hemolysis concentration)", "setting": "[2]", "result": 128, "unit": "µg/mL"}, {"measurement": "MIC", "setting": "[3]", "result": 32, "unit": "µg/mL"}]}
{"molecule": "CC1(C)S[C@@H]2[C@H](NC(=O)[C@H](N)c3ccccc3)C(=O)N2[C@H]1C(=O)O", "note": "[ampicillin]", "values": [{"measurement": "Susceptibility of the MDR ETEC strain", "setting": "[1]", "result": "resistant"}]}
{"molecule": "CC(C)(O/N=C(\\C(=O)N[C@@H]1C(=O)N2C(C(=O)[O-])=C(C[n+]3ccccc3)CS[C@H]12)c1csc(N)n1)C(=O)O", "note": "[ceftazidime]", "values": [{"measurement": "Susceptibility of the MDR ETEC strain", "setting": "[1]", "result": "resistant"}]}
{"molecule": "O=C(N[C@H](CO)[C@H](O)c1ccc([N+](=O)[O-])cc1)C(Cl)Cl", "note": "[chloramphenicol]", "values": [{"measurement": "Susceptibility of the MDR ETEC strain", "setting": "[1]", "result": "resistant"}]}
{"molecule": "C=CC1=C(C(=O)O)N2C(=O)[C@@H](NC(=O)/C(=N\\OCC(=O)O)c3csc(N)n3)[C@H]2SC1", "note": "[cefixime]", "values": [{"measurement": "Susceptibility of the MDR ETEC strain", "setting": "[1]", "result": "resistant"}]}
{"molecule": "CNC(C)C1CCC(N)C(OC2C(N)CC(N)C(OC3OCC(C)(O)C(NC)C3O)C2O)O1", "note": "(stereo not drawn) [gentamicin]", "values": [{"measurement": "Susceptibility of the MDR ETEC strain", "setting": "[1]", "result": "resistant"}]}
{"molecule": "KKFATIAKKFINKLW-NH2 [Peptide Q4-15a-1]", "values": [{"measurement": "IC20 (cell viability, MTT)", "setting": "[4]", "result": "around 100 μg/mL"}, {"measurement": "MHC (minimal hemolysis concentration)", "setting": "[2]", "result": 256, "unit": "µg/mL"}, {"measurement": "IC20 (cell viability, MTT)", "setting": "[5]", "result": "around 100 μg/mL"}, {"measurement": "MIC", "setting": "[3]", "result": 4, "unit": "µg/mL"}]}
{"molecule": "KKFATIAKKFINKLW [Peptide Q4-15-1]", "values": [{"measurement": "MHC (minimal hemolysis concentration)", "setting": "[2]", "result": 256, "unit": "µg/mL"}, {"measurement": "MIC", "setting": "[3]", "result": 8, "unit": "µg/mL"}]}
{"molecule": "KKFATIAKKFINYLW-NH2 [Peptide Q4-15a]", "values": [{"measurement": "MHC (minimal hemolysis concentration)", "setting": "[2]", "result": 16, "unit": "µg/mL"}, {"measurement": "MIC", "setting": "[3]", "result": 4, "unit": "µg/mL"}]}
{"molecule": "LL37", "values": [{"measurement": "Effect on two Acinetobacter baumannii biofilms", "setting": "[6]", "result": "inhibitory effect"}]}
{"molecule": "[H]/N=C(/N)N[C@H]1[C@H](O)[C@@H](O)[C@H](O[C@@H]2O[C@@H](C)[C@](O)(C=O)[C@H]2O[C@@H]2O[C@@H](CO)[C@H](O)[C@@H](O)[C@@H]2NC)[C@@H](N/C(N)=N\\[H])[C@@H]1O", "note": "[streptomycin]", "values": [{"measurement": "Susceptibility of the MDR ETEC strain", "setting": "[1]", "result": "resistant"}]}
{"molecule": "CCn1cc(C(=O)O)c(=O)c2ccc(C)nc21", "note": "[nalidixic acid]", "values": [{"measurement": "Susceptibility of the MDR ETEC strain", "setting": "[1]", "result": "resistant"}]}
{"molecule": "CCN1CCN(C(=O)N[C@@H](C(=O)N[C@@H]2C(=O)N3[C@@H]2SC(C)(C)[C@@H]3C(=O)O)c2ccccc2)C(=O)C1=O", "note": "[piperacillin]", "values": [{"measurement": "Susceptibility of the MDR ETEC strain", "setting": "[1]", "result": "resistant"}]}
{"molecule": "polymyxin B", "values": [{"measurement": "Susceptibility of the MDR ETEC strain", "setting": "[1]", "result": "moderately susceptible"}]}
{"molecule": "KKFATIAKKFINYLW [Peptide Q4-15]", "values": [{"measurement": "MHC (minimal hemolysis concentration)", "setting": "[2]", "result": 128, "unit": "µg/mL"}, {"measurement": "MIC", "setting": "[3]", "result": 8, "unit": "µg/mL"}]}
{"molecule": "CC1CCc2cc(F)cc3c(=O)c(C(=O)O)cn1c23", "note": "(stereo not drawn) [flumequine]", "values": [{"measurement": "Susceptibility of the MDR ETEC strain", "setting": "[1]", "result": "resistant"}]}
{"molecule": "CC1=C(C(=O)O)N2C(=O)[C@@H](NC(=O)[C@H](N)c3ccc(O)cc3)[C@H]2SC1", "note": "[cefadroxil]", "values": [{"measurement": "Susceptibility of the MDR ETEC strain", "setting": "[1]", "result": "resistant"}]}
{"molecule": "CC(=O)OCC1=C(C(=O)O)N2C(=O)[C@@H](NC(=O)Cc3cccs3)[C@H]2SC1", "note": "[cephalothin]", "values": [{"measurement": "Susceptibility of the MDR ETEC strain", "setting": "[1]", "result": "resistant"}]}
{"molecule": "GANAAKKFATIAKKFINYLW-NH2 [GW-Q4a]", "values": [{"measurement": "MHC (minimal hemolysis concentration)", "setting": "[2]", "result": 32, "unit": "µg/mL"}, {"measurement": "MIC", "setting": "[3]", "result": 8, "unit": "µg/mL"}]}
{"molecule": "C[C@H]1c2cccc(O)c2C(=O)C2=C(O)[C@]3(O)C(=O)C(C(N)=O)=C(O)[C@@H](N(C)C)[C@@H]3[C@@H](O)[C@@H]21", "note": "[doxycycline]", "values": [{"measurement": "Susceptibility of the MDR ETEC strain", "setting": "[1]", "result": "resistant"}]}
{"molecule": "CN(C)[C@@H]1C(O)=C(C(N)=O)C(=O)[C@@]2(O)C(O)=C3C(=O)c4c(O)cccc4[C@@](C)(O)[C@H]3C[C@@H]12", "note": "[tetracycline]", "values": [{"measurement": "Susceptibility of the MDR ETEC strain", "setting": "[1]", "result": "resistant"}]}
{"molecule": "penicillin", "values": [{"measurement": "Susceptibility of the MDR ETEC strain", "setting": "[1]", "result": "resistant"}]}
{"molecule": "CN(C)c1ccc(O)c2c1C[C@H]1C[C@H]3[C@H](N(C)C)C(O)=C(C(N)=O)C(=O)[C@@]3(O)C(O)=C1C2=O", "note": "[minocycline]", "values": [{"measurement": "Susceptibility of the MDR ETEC strain", "setting": "[1]", "result": "resistant"}]}
